According to paper PMC12007624 (Open Forum Infectious Diseases, 2025):

Experiments:
[1] = system: multidrug and toxin extrusion transporter MATE1; settings: renal tubules; cited from earlier work
[2] = Pharmacokinetics of RAL before and DTG after switch to DTG-based ART; type: in vivo, human; settings: SOT recipients receiving immunosuppressants
[3] = system: renal organic cation transporter OCT2; settings: renal tubules; interferes with creatinine clearance; cited from earlier work
[4] = Pharmacokinetics of immunosuppressants before and 2 weeks after ART switch; type: in vivo, human; settings: for AUC % Change / Cmax % Change / Cmin % Change: after vs before ART switch, P > .05

In the case of `C[C@@H]1CCO[C@H]2Cn3cc(C(=O)NCc4ccc(F)cc4F)c(=O)c(O)c3C(=O)N12` [DTG, Dolutegravir], the “effect on MATE1” value [1] is given as “potentially”, the “plasma levels versus normal range” value [2] is given as “in the normal range” and the “effect on OCT2” value [3] is given as “inhibits”.
In the case of `Cc1nnc(C(=O)NC(C)(C)c2nc(C(=O)NCc3ccc(F)cc3)c(O)c(=O)n2C)o1` [RAL, Raltegravir], the “plasma levels versus normal range” value [2] is reported as “in the normal range”.
For `COc1c(C)c2c(c(O)c1C/C=C(\C)CCC(=O)O)C(=O)OC2` [Mycophenolic Acid, mycophenolic acid], the Cmin ([4]; After ART switch (2 weeks on DTG-based ART), plasma, median (IQR)) was 2.9 (1.7, 4) µg/mL, the Cmin ([4]; Before ART switch (RAL-based ART), plasma, median (IQR)) was 1.9 (1.5, 2.5) µg/mL and the “AUC % Change” value [4] was 16%. For the same compound, the “Cmax % Change” value [4] was 63%, the “Cmin % Change” value [4] was 53% and the “AUC % Change” value ([4]; listed as mycophenolic acid) was “+16%”. The “Cmax % Change” value ([4]; listed as mycophenolic acid) was “+63%” and the “Cmin % Change” value ([4]; listed as mycophenolic acid) was “+53%”.
In the case of `C=CC[C@@H]1/C=C(\C)C[C@H](C)C[C@H](OC)[C@H]2O[C@@](O)(C(=O)C(=O)N3CCCC[C@H]3C(=O)O[C@H](/C(C)=C/[C@@H]3CC[C@@H](O)[C@H](OC)C3)[C@H](C)[C@@H](O)CC1=O)[C@H](C)C[C@@H]2OC` [Tacrolimus, tacrolimus], the Cmin ([4]; After ART switch (2 weeks on DTG-based ART), blood, median (IQR)) is reported as 4.4 (4.3, 8.5) ng/mL, the Tmax ([4]; After ART switch (2 weeks on DTG-based ART), median (IQR)) is reported as 2 (1, 2) h and the Cmin ([4]; Before ART switch (RAL-based ART), blood, median (IQR)) is reported as 6.2 (5.2, 8.9) ng/mL. For the same compound, the “AUC % Change” value [4] was −9%, the “Cmax % Change” value [4] was 14% and the “Cmin % Change” value [4] was −29%. The “Cmax % Change” value ([4]; listed as tacrolimus) was “+14%”.
